Laboratory results from US20040106626A1, “6-Membered unsaturated heterocyclic compounds useful for selective inhibition of the coagulation cascade” (Pharmacia Corporation, priority 2001, published 2004).

Experiments:
Assay type in all cases: biochemical
Human thrombin = biological target: T1, Human thrombin (Homo sapiens, UniProt P00734); assay: Thrombin assay (chromogenic substrate); conditions: reported only as less than or greater than 30 uM; read-out: Thrombin (II) IC50
T1 construct: converts prothrombin (II) to thrombin (IIa); purchased Calbiochem, La Jolla, Calif
Experimental: Percent inhibition of thrombin activity is calculated from OD405 nm value from the experimental and control sample.
(§1) Recombinant human VIIa was purchased from American Diagnostica, Greenwich CT and chromogenic substrate N-methylsulfonyl-D-phe-gly-arg-p-nitroaniline was prepared by American Peptide Company, Inc., Sunnyvale, Calif. Factor Xa was obtained from Enzyme Research Laboratories, South Bend Ind., thrombin from Calbiochem, La Jolla, Calif., and trypsin and L-BAPNA from Sigma, St. Louis Mo.

[1] = system: Normal human pooled plasma; assay: Prothrombin time (PT) clotting assay; conditions: concentration at which prothrombin time is prolonged by 2x normal, reported as less than or greater than 50 uM
Experimental: The prothrombin time (PT) assay is a clotting assay that is used to determine deficiencies of clotting factor activity in the extrinsic pathway. The assay measures time to clotting after the addition of thromboplastin (human tissue factor). Normal human pooled plasma is incubated with 100 uM compound or saline in a coagulation machine. Thromboplastin is added and time to clotting is measured. Compounds with greater than 3×normal PT of 11.0 seconds are further analyzed by concentration response to determine at what concentration the prothrombin time is prolonged by 2×normal.

Human factor Xa = biological target: T2, Human factor Xa (Homo sapiens, UniProt P00742); assay: Xa assay (chromogenic substrate S-2765); conditions: reported only as less than or greater than 30 uM; read-out: Factor Xa (II) IC50
T2 construct: purchased Enzyme Research Laboratories, South Bend Ind
Experimental: Human factor Xa (0.3 nM) and 0.15 mM -a-Benzyloxycarbonyl-D-arginyl-L-glycyl-L-arginine-p-nitroaniline-dihydrochloride (S-2765) are added to a 96-well assay plate containing either inhibitor or buffer (50 mM Tris-HCl, pH 8.0, 100 mM NaCl, 0.1% BSA). The reaction, in a final volume of 100 ul is measured immediately at 405 nm to determine background absorbance. The plate is incubated at room temperature for 60 min, at which time the rate of hydrolysis of the substrate is measured by monitoring the reaction at 405 nm for the release of p-nitroaniline. Percent inhibition of Xa activity is calculated from OD405 nm value from the experimental and control sample.
Recombinant soluble TF, consisting of amino acids 1-219 of the mature protein sequence was expressed in E. coli and purified using a Mono Q Sepharose FPLC. Recombinant human VIIa was purchased from American Diagnostica, Greenwich CT and chromogenic substrate N-methylsulfonyl-D-phe-gly-arg-p-nitroaniline was prepared by American Peptide Company, Inc., Sunnyvale, Calif. Factor Xa was obtained from Enzyme Research Laboratories, South Bend Ind., thrombin from Calbiochem, La Jolla, Calif., and trypsin and L-BAPNA from Sigma, St. Louis Mo. The chromogenic substrates S-2765 and S-2238 were purchased from Chromogenix, Sweden.

[2] = biological target: T3, recombinant soluble tissue factor and recombinant human factor VIIa (TF-VIIa) (Homo sapiens, UniProt P08709); assay: TF-VIIa assay (chromogenic substrate hydrolysis); conditions: reported only as less than or greater than 0.1 uM
T3 construct: conversion of coagulation factor VII to VIIa by factor Xa; purchased American Diagnostica, Greenwich CT; host or cells: soluble TF made in house in E. coli
Experimental: In this assay 100 nM recombinant soluble tissue factor and 2 nM recombinant human factor VIIa are added to a 96-well assay plate containing 0.4 mM of the substrate, N-methylsulfonyl-D-phe-gly-arg-p-nitroaniline and either inhibitor or buffer (5 mM CaCl2, 50 mM Tris-HCl, pH 8.0, 100 mM NaCl, 0.1% BSA). […] Percent inhibition of TF-VIIa activity is calculated from OD405 nm value from the experimental and control sample.
as §1

T2 sequence (P00742 235-488 limits assumed): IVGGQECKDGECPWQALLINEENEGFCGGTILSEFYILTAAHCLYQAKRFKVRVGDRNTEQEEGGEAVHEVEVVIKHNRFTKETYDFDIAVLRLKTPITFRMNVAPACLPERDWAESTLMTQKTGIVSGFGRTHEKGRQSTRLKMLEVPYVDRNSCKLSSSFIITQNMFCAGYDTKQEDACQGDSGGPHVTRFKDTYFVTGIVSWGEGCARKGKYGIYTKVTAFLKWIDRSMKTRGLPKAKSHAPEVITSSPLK
T2 sequence (P00742 41-179 limits assumed): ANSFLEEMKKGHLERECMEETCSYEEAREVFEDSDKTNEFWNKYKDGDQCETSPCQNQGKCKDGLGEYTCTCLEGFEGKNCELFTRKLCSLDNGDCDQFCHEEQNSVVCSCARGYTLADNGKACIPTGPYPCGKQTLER
T3 sequence (P08709 213-466 limits assumed): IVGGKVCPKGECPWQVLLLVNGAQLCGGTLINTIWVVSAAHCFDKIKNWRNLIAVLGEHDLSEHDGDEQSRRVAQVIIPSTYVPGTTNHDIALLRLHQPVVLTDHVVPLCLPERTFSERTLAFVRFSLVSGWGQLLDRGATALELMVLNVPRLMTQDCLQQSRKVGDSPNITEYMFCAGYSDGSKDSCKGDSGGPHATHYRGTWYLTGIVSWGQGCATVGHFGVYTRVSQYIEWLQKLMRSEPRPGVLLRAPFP
T3 sequence (P08709 61-212 limits assumed): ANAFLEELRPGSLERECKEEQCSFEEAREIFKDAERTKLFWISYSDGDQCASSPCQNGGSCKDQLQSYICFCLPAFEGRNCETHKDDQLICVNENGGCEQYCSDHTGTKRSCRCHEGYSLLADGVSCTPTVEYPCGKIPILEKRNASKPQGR
T3 sequence (P13726 33-251 partner limits assumed): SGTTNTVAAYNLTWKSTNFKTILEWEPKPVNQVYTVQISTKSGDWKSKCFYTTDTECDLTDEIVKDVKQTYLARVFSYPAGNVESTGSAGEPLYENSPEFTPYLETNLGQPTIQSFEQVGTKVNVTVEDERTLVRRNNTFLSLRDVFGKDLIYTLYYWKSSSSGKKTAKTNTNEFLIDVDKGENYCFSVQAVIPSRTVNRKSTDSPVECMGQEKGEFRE

| IC50 (Human thrombin) [µM] | IC50 (Human factor Xa) [µM] | IC50 [2] [µM] | SMILES | PT (Prothrombin time) 2xPT [1] [µM] |
| --- | --- | --- | --- | --- |
| < 30 | > 30 | < 0.1 | CC(C)Nc1ncc(-c2cc(N)cc(C(=O)NC(C)c3ccccc3)c2)n(CC(=O)NCc2ccc(C(=N)N)cc2)c1=O (racemic) [Example 56] | <50.0 |
| > 30 | > 30 | < 0.1 | CNc1ncc(-c2cc(N)cc(N)c2)n(CC(=O)NCc2ccc(C(=N)N)cc2)c1=O [Example 35] | <50.0 |
| > 30 | > 30 | > 0.1 | CC(C)Nc1ncc(-c2cc(N)cc(C(F)(F)F)c2)n(CC(=O)NCc2ccc(C(=N)N)c(O)c2)c1=O [Example 49] | <50.0 |
| < 30 | > 30 | < 0.1 | CC(C)Nc1ncc(-c2cc(N)cc(NC(=O)C(C)C)c2)n(CC(=O)NCc2ccc(C(=N)N)cc2)c1=O [Example 50, N-{3-amino-5-[1-[2-({4-[amino(imino)methyl]benzyl}amino)-2-oxoethyl]-5-(isopropylamino)-6-oxo-1,6-dihydropyrazin-2-yl]phenyl}-2-methylpropanamide] | <50.0 |
| > 30 | > 30 | > 0.1 | CC(C)Nc1ncc(-c2cc(N)cc(C(F)(F)F)c2)n(CC(=O)NCc2ccc(C(=N)N)c(F)c2F)c1=O [Example 51] | <50.0 |
| > 30 | > 30 | < 0.1 | COc1cc(N)cc(-c2cnc(NC(C)C)c(=O)n2CC(=O)NCc2ccc(C(=N)N)cc2)c1 [Example 53, N-{4-[Amino(imino)methyl]benzyl}-2-[6-(3-amino-5-methoxyphenyl)-3-(isopropylamino)-2-oxopyrazin-1 (2H)-yl]acetamide] | <50.0 |
| > 30 | > 30 | < 0.1 | CC(C)Nc1ncc(-c2cc(N)cc(O)c2)n(CC(=O)NCc2ccc(C(=N)N)cc2)c1=O [Example 54] | <50.0 |
| < 30 | > 30 | < 0.1 | CC(C)Nc1ncc(-c2cc(N)cc(C(=O)N[C@@H](C)c3ccccc3)c2)n(CC(=O)NCc2ccc(C(=N)N)cc2)c1=O [Example 57] | <50.0 |
| < 30 | > 30 | < 0.1 | CC(C)Nc1ncc(-c2cc(N)cc(C(=O)N[C@H](C)c3ccccc3)c2)n(CC(=O)NCc2ccc(C(=N)N)cc2)c1=O [Example 58] | <50.0 |
| > 30 | > 30 | > 0.1 | CC(C)Nc1ncc(-c2cc(N)cc(C(=O)NCc3cc(C(F)(F)F)cc(C(F)(F)F)c3)c2)n(CC(=O)NCc2ccc(C(=N)N)cc2)c1=O [Example 59] | >50.0 |
| > 30 | > 30 | < 0.1 | CC(C)Nc1ncc(-c2cc(N)cc(C(=O)NCc3cccnc3)c2)n(CC(=O)NCc2ccc(C(=N)N)cc2)c1=O [Example 61] | <50.0 |
| < 30 | > 30 | < 0.1 | CC(C)Nc1ncc(-c2cc(N)cc(C(=O)NCCCc3ccccc3)c2)n(CC(=O)NCc2ccc(C(=N)N)cc2)c1=O [Example 62] | <50.0 |
| < 30 |  |  | CC[C@H](C)NC(=O)c1cc(N)cc(-c2cnc(NC(C)C)c(=O)n2CC(=O)NCc2ccc(C(=N)N)cc2)c1 [Example 71] | <50.0 |

Further lines, the molecule ahead of its results:

| SMILES | IC50 (Human thrombin) [µM] | IC50 (Human factor Xa) [µM] | IC50 [2] [µM] | PT (Prothrombin time) 2xPT [1] [µM] |
| --- | --- | --- | --- | --- |
| CC(C)Nc1nc(Br)c(-c2cc(N)cc(C(=O)O)c2)n(CC(=O)NCc2ccc(C(=N)N)cc2)c1=O [Example 3, 3-Amino-5-[1-[2-({4-[amino(imino)methyl]benzyl}amino)-2-oxoethyl]-3-bromo-5-(isopropylamino)-6-oxo-1,6-dihydropyrazin-2-yl]benzoic Acid] |  | > 30 | < 0.1 | <50.0 |
| COC(=O)c1cc(N)cc(-c2c(Br)nc(NC(C)C)c(=O)n2CC(=O)NCc2ccc(C(=N)N)cc2)c1 [Example 4, Methyl 3-amino-5-[1-[2-({4-[amino(imino)methyl]benzyl}amino)-2-oxoethyl]-3-bromo-5-(isopropylamino)-6-oxo-1,6-dihydropyrazin-2-yl]benzoate] | > 30 | > 30 | < 0.1 | >50.0 |
| CC(C)CCNC(=O)c1cc(N)cc(-c2cnc(NC(C)C)c(=O)n2CC(=O)NCc2ccc(C(=N)N)cc2)c1.O=C(O)C(F)(F)F.O=C(O)C(F)(F)F [Example 6] | > 30 | > 30 | < 0.1 | <50.0 |
| CCC(C)NC(=O)c1cc(N)cc(-c2cnc(NC(C)C)c(=O)n2CC(=O)NCc2ccc(C(=N)N)cc2)c1.O=C(O)C(F)(F)F.O=C(O)C(F)(F)F (stereo not drawn) [Example 7] | < 30 | > 30 | < 0.1 | <50.0 |
| CC(C)Nc1ncc(-c2cc(N)cc(C(=O)NCc3cccc(C(F)(F)F)c3)c2)n(CC(=O)NCc2ccc(C(=N)N)cc2)c1=O.O=C(O)C(F)(F)F.O=C(O)C(F)(F)F [Example 10] | > 30 | > 30 | < 0.1 | <50.0 |
| CC(C)Nc1ncc(-c2cc(N)cc(C(=O)NC3CCC3)c2)n(CC(=O)NCc2ccc(C(=N)N)cc2)c1=O.O=C(O)C(F)(F)F.O=C(O)C(F)(F)F [Example 15] | < 30 | > 30 | < 0.1 | <50.0 |
| CC(C)Nc1ncc(-c2cc(N)cc(C(F)(F)F)c2)n(CC(=O)NCc2ccc(C(=N)N)cc2)c1=O [Example 18] | > 30 | > 30 | < 0.1 | <50.0 |
| CC(C)Nc1ncc(-c2cc(N)cc(C(=O)NCc3ccccc3)c2)n(CC(=O)NCc2ccc(C(=N)N)cc2)c1=O.O=C(O)C(F)(F)F.O=C(O)C(F)(F)F [Example 24] | > 30 | > 30 | < 0.1 | <50.0 |
| CC(C)Nc1ncc(-c2cc(N)cc(C(=O)N(C)Cc3ccccc3)c2)n(CC(=O)NCc2ccc(C(=N)N)cc2)c1=O.O=C(O)C(F)(F)F.O=C(O)C(F)(F)F [Example 28] | > 30 | > 30 | < 0.1 | <50.0 |
| CC(C)Nc1nc(Cl)c(-c2cc(N)cc(O)c2)n(CC(=O)NCc2ccc(C(=N)N)cc2)c1=O.O=C(O)C(F)(F)F [Example 178] |  | > 30 | < 0.1 | <50.0 |
| CC[C@H](C)NC(=O)c1cc(N)cc(-c2cnc(NC3CC3)c(=O)n2CC(=O)NCc2ccc(C(=N)N)cc2)c1.O=C(O)C(F)(F)F.O=C(O)C(F)(F)F [Example 184] | < 30 |  |  | <50.0 |
| CC(C)Nc1ncc(-c2cc(N)c3[nH]ccc3c2)n(CC(=O)NCc2ccc(C(=N)N)cc2)c1=O.O=C(O)C(F)(F)F.O=C(O)C(F)(F)F [Example 249] | > 30 |  | < 0.1 | <50.0 |
| N=C(N)c1ccc(CNC(=O)Cn2c(-c3cc(N)cc(C(=O)OCc4ccccc4)c3)cnc(NC3CC3)c2=O)cc1.O=C(O)C(F)(F)F [Example 251] | > 30 |  | < 0.1 | <50.0 |
| CC[C@@H](C)NC(=O)c1cc(N)cc(-c2cnc(NC(C)C)c(=O)n2CC(=O)NCc2ccc(C(=N)N)c(O)c2)c1.O.O.O=C(O)C(F)(F)F [Example 254] | > 30 |  | < 0.1 | <50.0 |
